Results: ChEMBL document CHEMBL5518215, “Unlocking Antibacterial Potential: Key-Site-Based Regulation of Antibacterial Spectrum of Peptides” (J Med Chem, 2024)
Activity calls are given as the source filed them. The rule behind the calls is not given here.

Assays:
[1] = tested on: Escherichia coli; test: Antimicrobial activity against Escherichia coli 25922 assessed as absence bacterial growth measured after 18 to 24 hrs incubation by NCCLS method; format: functional; details: time 18-24 hrs
[2] = tested on: Salmonella typhimurium; test: Antimicrobial activity against Salmonella typhimurium 14028 assessed as absence bacterial growth measured after 18 to 24 hrs incubation by NCCLS method; format: functional, Salmonella enterica subsp. enterica serovar Typhimurium; details: Salmonella enterica, time 18-24 hrs
[3] = tested on: Pseudomonas aeruginosa; test: Antimicrobial activity against Pseudomonas aeruginosa 27853 assessed as absence bacterial growth measured after 18 to 24 hrs incubation by NCCLS method; format: functional; details: time 18-24 hrs
[4] = tested on: Enterococcus faecalis; test: Antimicrobial activity against Enterococcus faecalis 29212 assessed as absence bacterial growth measured after 18 to 24 hrs incubation by NCCLS method; format: functional; details: time 18-24 hrs
[5] = tested on: Escherichia coli; test: Antimicrobial activity against Escherichia coli K88 assessed as bacterial killing measured after 16 hrs incubation; format: functional
[6] = tested on: Salmonella typhimurium; test: Antimicrobial activity against Salmonella typhimurium 14028 assessed as bacterial killing measured after 16 hrs incubation; format: functional, Salmonella enterica subsp. enterica serovar Typhimurium; details: Salmonella enterica
[7] = tested on: Acinetobacter baumannii; test: Antimicrobial activity against Acinetobacter baumannii 1.6769 assessed as bacterial killing measured after 16 hrs incubation; format: functional
[8] = tested on: Staphylococcus aureus; test: Antimicrobial activity against Staphylococcus aureus 29213 assessed as bacterial killing measured after 16 hrs incubation; format: functional
[9] = tested on: Staphylococcus aureus; test: Antimicrobial activity against Methicillin-resistant Staphylococcus aureus 43300 assessed as bacterial killing measured after 16 hrs incubation; format: functional
[10] = tested on: Staphylococcus epidermidis; test: Antimicrobial activity against Staphylococcus epidermidis 12228 assessed as bacterial killing measured after 16 hrs incubation; format: functional
[11] = tested on: Escherichia coli; test: Antimicrobial activity against Escherichia coli 25922 assessed as absence bacterial growth measured after 18 to 24 hrs incubation in presence of 25% serum by NCCLS method; format: functional; details: time 18-24 hrs
[12] = tested on: Escherichia coli; test: Antimicrobial activity against Escherichia coli 25922 assessed as absence bacterial growth measured after 18 to 24 hrs incubation in presence of 12.5% serum by NCCLS method; format: functional; details: time 18-24 hrs
[13] = tested on: Escherichia coli; test: Antimicrobial activity against Escherichia coli 25922 assessed as absence bacterial growth measured after 18 to 24 hrs incubation in presence of NaCl by NCCLS method; format: functional; details: time 18-24 hrs
[14] = tested on: Escherichia coli; test: Antimicrobial activity against Escherichia coli 25922 assessed as absence bacterial growth measured after 18 to 24 hrs incubation in presence of KCl by NCCLS method; format: functional; details: time 18-24 hrs
[15] = tested on: Escherichia coli; test: Antimicrobial activity against Escherichia coli 25922 assessed as absence bacterial growth measured after 18 to 24 hrs incubation in presence of ZnCl2 by NCCLS method; format: functional; details: time 18-24 hrs
[16] = tested on: Escherichia coli; test: Antimicrobial activity against Escherichia coli 25922 assessed as absence bacterial growth measured after 18 to 24 hrs incubation in presence of FeCl3 by NCCLS method; format: functional; details: time 18-24 hrs
[17] = Cytotoxicity against mouse RAW264.7 cells assessed as cell survival rate at 32 to 64 uM measured after 8 hrs by MTT assay relative to control; format: toxicity, cell-based; details: dose 32-64 µM, read-out: Activity
[18] = Cytotoxicity against porcine IPEC-J2 cells assessed as cell survival rate at 64 uM measured after 8 hrs by MTT assay relative to control; format: toxicity, cell-based, Sus scrofa; details: pig, read-out: Activity
[19] = Cytotoxicity against human HEK-293T cells assessed as cell survival rate measured after 8 hrs by MTT assay; format: toxicity, cell-based
[20] = tested on: Staphylococcus aureus; test: Antibacterial activity against Staphylococcus aureus 29213 assessed as bactericidal rate by measuring reduction in bacterial count at 1 times MBC concentration measured at 15 secs by time-kill kinetic assay; format: functional; details: time 15 sec; 15 s
[21] = tested on: Escherichia coli; test: Antibacterial activity against Escherichia coli 25922 assessed as absence bacterial growth measured after 18 to 24 hrs incubation at pH 8 by NCCLS method; format: functional; details: time 18-24 hrs
[22] = tested on: Escherichia coli; test: Antibacterial activity against Escherichia coli 25922 assessed as absence bacterial growth measured after 18 to 24 hrs incubation at pH 10 by NCCLS method; format: functional; details: time 18-24 hrs
[23] = tested on: Escherichia coli; test: Antibacterial activity against Escherichia coli 25922 assessed as absence bacterial growth measured after 4 hrs treated with H2O2; format: functional
[24] = tested on: Escherichia coli; test: Antibacterial activity against Escherichia coli 25922 assessed as absence bacterial growth measured after 8 hrs treated with H2O2; format: functional
[25] = tested on: Escherichia coli; test: Antibacterial activity against Escherichia coli 25922 assessed as absence bacterial growth measured after 12 hrs treated with H2O2; format: functional
[26] = tested on: Escherichia coli; test: Outer membrane permeabilization/cell wall in Escherichia coli 25922 assessed as fluorescence intensity of NPN measured at 2 to 128 uM after 1 hr by spectrophotometry; format: functional, organism-based; details: dose 2-128 µM
[27] = tested on: Escherichia coli; test: Effect on inner membrane fluidity in Escherichia coli 25922 assessed as reduction in intracellular membrane fluidity by measuring fluorescence intensity of Laurdan-GP after 60 mins by spectrophotometry; format: functional, organism-based
[28] = tested on: Cell membrane; test: Induction of cytoplasmic membrane disruption in Staphylococcus aureus 29213 assessed as increase in fluorescence intensity measured upto 30 mins by DiSC3-5 probe based assay; format: cell membranes; details: dose 2-64 µM
[29] = tested on: Cell membrane; test: Induction of cytoplasmic membrane disruption in Staphylococcus aureus 29213 assessed as increase in fluorescence intensity at 2 to 64 uM by DiSC3-5 probe based assay; format: cell membranes; details: dose 2-64 µM, time <= 30.0 min, TDE = time-dependent effect
[30] = tested on: Cell membrane; test: Induction of membrane disruption in Escherichia coli 25922 assessed as increase in extracellular ATP level at 4 to 32 uM measured after 1 hr; format: cell membranes; details: dose 4-32 µM
[31] = tested on: Staphylococcus aureus; test: Induction of morphological changes in Staphylococcus aureus 29213 assessed as changes in cell surface by measuring signs of disruption by using scanning electron microscopy; format: functional, organism-based
[32] = tested on: Escherichia coli; test: Induction of morphological changes in Escherichia coli 25922 assessed as membrane damage and cytoplasmic leakage by using transmission electron microscopy; format: functional, organism-based
[33] = tested on: Staphylococcus aureus; test: Induction of morphological changes in Staphylococcus aureus 29213 assessed as loose distribution of cellular contents by using transmission electron microscopy; format: functional, organism-based

## H-GKLWLKAGKLWLKGGKLWLKG-NH2
[1]
  MIC: 2 µM
[2]
  MIC: 2 µM
[3]
  MIC: 4 µM
[4]
  MIC: 4 µM
[5]
  MBC: 0.5 µM
[6]
  MBC: 16 µM
[7]
  MBC: 2 µM
[8]
  MBC: 8 µM
[9]
  MBC: 4 µM
[10]
  MBC: 8 µM
[11]
  MIC: 32 µM
[12]
  MIC: 16 µM
[13]
  MIC: 16 µM
[14]
  MIC: 2 µM
[15]
  MIC: 2 µM
[16]
  MIC: 2 µM
[17]
  viability at 8 h, up to 64 µM: 60%
[18]
  viability at 8 h, 64 µM: > 80%
[19]
  IC50 at 8 h: > 64 µM
[20]
  inhibition (INH): 99.99%
[21]
  MIC: 2 µM
[22]
  MIC: 2 µM
[23]
  MIC: 2 µM
[24]
  MIC: 2 µM
[25]
  MIC: 4 µM
[26]
  permeability: Permeable
[27]
  Activity: Active
[28]
  Activity: Dose-Dependent Effect
[29]
  Activity: Tde
[30]
  Activity: Active
[31]
  Activity: Active
[32]
  Activity: Active
[33]
  Activity: Active
